Data from ChEMBL document CHEMBL1201862, “PubChem BioAssay data set” (2004).
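Exposure lasted 48 hours, with cells grown in 96-well plates and compounds tested at five concentrations. At the GI50, growth is halved.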 The source made the active and inactive calls. Cut-off read from the data, not from the text of the source: active = GI50 up to about 1.1 µM and inactive = higher.

Columns and labels:
Experiment in all cases: NCI anticancer screen, dose series, 48 h
A498 = test system: A498
ACHN = test system: ACHN
CAKI-1 = test system: CAKI-1
CCRF-CEM = test system: CCRF-CEM
HCT-116 = test system: HCT-116
KM12 = test system: KM12
LOX IMVI = test system: LOX IMVI
LXFL 529 = test system: LXFL 529
Malme-3M = test system: Malme-3M
NCI/ADR-RES = test system: NCI/ADR-RES
OVCAR-4 = test system: OVCAR-4
OVCAR-5 = test system: OVCAR-5
RPMI-8226 = test system: RPMI-8226
SF-295 = test system: SF-295
SK-MEL-28 = test system: SK-MEL-28
SR = test system: SR
UACC-62 = test system: UACC-62
BT-549 = test system: BT-549
DU-145 = test system: DU-145
MDA-MB-435 = test system: MDA-MB-435

Row | Compound | GI50 (A498) | GI50 (ACHN) | GI50 (CAKI-1) | GI50 (CCRF-CEM) | GI50 (HCT-116) | GI50 (KM12) | GI50 (LOX IMVI) | GI50 (LXFL 529) | GI50 (Malme-3M) | GI50 (NCI/ADR-RES) | GI50 (OVCAR-4) | GI50 (OVCAR-5) | GI50 (RPMI-8226) | GI50 (SF-295) | GI50 (SK-MEL-28) | GI50 (SR) | GI50 (UACC-62) | GI50 (BT-549) | GI50 (DU-145) | GI50 (MDA-MB-435)
1 | Cn1sc2ccccc2c1=S | 48.5 µM (inactive) | 13.8 µM (inactive) | 11.7 µM (inactive) | 2.44 µM (inactive) | 3.21 µM (inactive) | 12 µM (inactive) | 1.78 µM (inactive) | 14 µM (inactive) | 9.82 µM (inactive) | 3.21 µM (inactive) | 8.2 µM (inactive) | 20 µM (inactive) | 6.73 µM (inactive) | 12.6 µM (inactive) | 8.11 µM (inactive) | 14 µM (inactive) | 5.78 µM (inactive) | – | – | –
2 | COc1ccc(C(=O)c2c(C(C(=O)c3ccc(OC)cc3)C(=O)c3ccc(OC)cc3)n(C(=O)c3ccc(OC)cc3)c3ccccc23)cc1 | > 100 µM (inactive) | > 100 µM (inactive) | > 100 µM (inactive) | > 100 µM (inactive) | > 100 µM (inactive) | > 100 µM (inactive) | > 100 µM (inactive) | > 100 µM (inactive) | > 100 µM (inactive) | – | > 100 µM (inactive) | > 100 µM (inactive) | > 100 µM (inactive) | > 100 µM (inactive) | > 100 µM (inactive) | > 100 µM (inactive) | > 100 µM (inactive) | – | – | –
3 | Cc1cc(=O)oc2c(C3=NN(C=O)C(c4ccccc4)C3)c(O)ccc12 (stereo unspecified) | > 56.2 µM (inactive) | 14.8 µM (inactive) | > 72.1 µM (inactive) | 60.5 µM (inactive) | 81.1 µM (inactive) | > 100 µM (inactive) | > 72.4 µM (inactive) | > 100 µM (inactive) | > 71.9 µM (inactive) | 61.9 µM (inactive) | > 64.1 µM (inactive) | > 87.7 µM (inactive) | > 79.3 µM (inactive) | 10 µM (inactive) | > 100 µM (inactive) | 60.1 µM (inactive) | 82.2 µM (inactive) | 65.6 µM (inactive) | > 100 µM (inactive) | > 65.9 µM (inactive)
4 | O=c1[nH]c(=O)n(C2OC(CO)C(O)C2O)cc1/N=N/NCc1ccccc1 (stereo unspecified) | > 100 µM (inactive) | > 100 µM (inactive) | > 100 µM (inactive) | > 69.5 µM (inactive) | > 62.2 µM (inactive) | > 100 µM (inactive) | > 63.8 µM (inactive) | 98.2 µM (inactive) | > 100 µM (inactive) | – | > 100 µM (inactive) | > 100 µM (inactive) | > 59.6 µM (inactive) | > 100 µM (inactive) | > 100 µM (inactive) | > 63.2 µM (inactive) | > 100 µM (inactive) | – | – | –
5 | CCOC(OCC)(OCC)C(Br)CC (stereo unspecified) | > 100 µM (inactive) | > 100 µM (inactive) | > 100 µM (inactive) | 28.2 µM (inactive) | 0.0281 µM (active) | > 100 µM (inactive) | 88.1 µM (inactive) | 51.9 µM (inactive) | > 100 µM (inactive) | – | > 100 µM (inactive) | > 100 µM (inactive) | 18.8 µM (inactive) | > 100 µM (inactive) | > 100 µM (inactive) | 21.6 µM (inactive) | > 100 µM (inactive) | – | – | –
6 | CCN(CC)CCCC(C)Nc1c2cc(OC)cc(C)c2nc2c(C)c(Cl)ccc12 (stereo unspecified) | 2.43 µM (inactive) | 1.69 µM (inactive) | 1.92 µM (inactive) | 1.47 µM (inactive) | 1.86 µM (inactive) | 1.64 µM (inactive) | 2.02 µM (inactive) | 1.58 µM (inactive) | 1.85 µM (inactive) | – | 1.71 µM (inactive) | 2.1 µM (inactive) | 2.62 µM (inactive) | 2.22 µM (inactive) | 1.95 µM (inactive) | 2.01 µM (inactive) | 1.79 µM (inactive) | – | – | –
7 | COC(=O)C1=C(C)N(NC(=O)OC(C)(C)C)C(=O)C1=P(c1ccccc1)(c1ccccc1)c1ccccc1 | > 100 µM (inactive) | > 100 µM (inactive) | > 100 µM (inactive) | > 100 µM (inactive) | > 100 µM (inactive) | 64 µM (inactive) | > 100 µM (inactive) | > 100 µM (inactive) | > 100 µM (inactive) | – | > 100 µM (inactive) | > 100 µM (inactive) | > 100 µM (inactive) | 67.9 µM (inactive) | – | 69 µM (inactive) | > 100 µM (inactive) | – | – | –
